Numbered stars: 1 amine (or outer) side, 2 acyl side, 3 side chain; on linkers, the order of the positions; unused ones are H or OH. Bridge positions count the residues as written; N and C are the ends. Square brackets hold non-standard residues; d marks the D form. Peptide text beside a SMILES is read from it. NGly(3-aminopropyl) = O=C(CN(CCCN[*:3])[*:1])[*:2]; N(2-Aminoethyl)Gly = O=C(CN(CCN[*:3])[*:1])[*:2]; N(CH2CH2CO)Gly = O=C(CN(CCC(=O)[*:3])[*:1])[*:2]; N(CH2CH2COOH)Gly = O=C(O)CCNCC(=O)O; Gly(N(CH2)3NH2) = NCCCNCC(=O)O
Tests used:
[1] = biological target: T1, bradykinin receptors (PC 12 cells) (Rattus norvegicus, UniProt P25023); assay: Bradykinin antagonist assay: (3H)dopamine release from PC 12 cells; format: cell-based; conditions: at 10^-6 M; (3H)DA release stimulated by bradykinin, PC12 cells
T1 construct: PC 12 cells that express bradykinin receptors; endogenous in cells; host or cells: PC12 cells
T1 sequence (P25023 1-396): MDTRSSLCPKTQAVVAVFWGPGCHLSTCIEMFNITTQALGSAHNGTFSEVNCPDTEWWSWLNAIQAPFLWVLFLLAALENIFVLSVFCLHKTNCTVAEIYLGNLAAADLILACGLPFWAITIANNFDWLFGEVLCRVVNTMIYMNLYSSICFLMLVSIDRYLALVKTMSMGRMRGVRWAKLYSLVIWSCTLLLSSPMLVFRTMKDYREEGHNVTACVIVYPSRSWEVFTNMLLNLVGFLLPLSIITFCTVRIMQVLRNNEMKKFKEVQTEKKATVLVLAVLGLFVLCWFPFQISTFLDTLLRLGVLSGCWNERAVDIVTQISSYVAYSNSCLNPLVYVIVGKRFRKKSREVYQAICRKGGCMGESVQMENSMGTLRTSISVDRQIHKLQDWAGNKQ
Method: BRADYKININ ANTAGONIST ASSAY (Displacement of (^3 H)dopamine release from PC 12 cells)
Novel backbone cyclized peptide analogs of the present invention were assayed in vitro for bradykinin antagonist activity by protection of (^3 H)dopamine release from PC 12 cells that express bradykinin receptors. PC12 cells were grown in Dulbecco Modified Eagle's medium with high glucose, supplemented with 10% horse serum, 5% fetal calf serum, 130 units/ml penicillin and 0.1 mg/ml streptomycin. For experiments, cells were removed from the medium using 1 mmole EDTA and replated on collagen coated-12-well plates and assayed 24 hr later. Release of (^3 H)dopamine was determined as follows: cells were incubated for 1.5 hr at 37° C. with 0.5 ml of growth medium and […] (^3 H)DA (41 Ci/mmole) and […] pargyline followed by extensive washing with medium (3×1 ml) and release buffer consisting of (mM): 130 NaCl; 5 KCl; 25 NaHCO3; 1 NaH2 PO4; 10 glucose and 1.8 CaCl2. In a typical experiment, cells were incubated with 0.5 ml buffer for 5 consecutive incubation periods of 3 min each at 37° C. Spontaneous (^3 H)DA release was measured by collecting the medium released by the cells successively for the first 3 min period. Antagonists were added to the cells 3 min prior to stimulation (at the second period), and stimulation of (^3 H)DA release by 100 nmole of bradykinin are monitored during the 3 period by 60 mmole KCl. The remaining of the (^3 H)DA was extracted from the cells by over night incubation with 0.5 ml 0.1N HCl. (^3 H)DA release during each 3 min period was expressed as a % of the total (^3 H)DA content of the cells. Net evoked release was calculated from (^3 H)DA release during stimulation period after subtracting basal (^3 H)DA release in the preceding baseline period if not indicated otherwise.

[2] = biological target: Somatostatin Receptor (SSTR) Subtype SSTR-5 (Homo sapiens, UniProt P35346); assay: Inhibition of radioactive iodinated somatostatin (SRIF-14) binding, CHO cells expressing SSTR-5; conditions: read-out: percent inhibition of SRIF-14 binding, SSTR-5; for inhibition at 1 µM: Conc. 10^-6 M; for inhibition at 0.1 µM: Conc. 10^-7 M; for inhibition at 0.01 µM: Conc. 10^-8 M
Text: (§1) Receptor binding specificity of cyclic peptide analogs
(§2) The values presented are percent inhibition of radioactive iodinated somatostatin (SRIF-14) binding.

[3] = test system: Somatostatin Receptor (SSTR) Subtype SSTR-2B; assay: Inhibition of radioactive iodinated somatostatin (SRIF-14) binding, CHO cells expressing SSTR-2B; conditions: read-out: percent inhibition of SRIF-14 binding, SSTR-2B; for inhibition at 1 µM: Conc. 10^-6 M; for inhibition at 0.1 µM: Conc. 10^-7 M; for inhibition at 0.01 µM: Conc. 10^-8 M
Text: as §1, §2

[4] = biological target: T2, BK2 receptors (Cavia porcellus, UniProt O70526); assay: Bradykinin antagonist assay: guinea-pig ileum contraction; conditions: at 10^-6 M, BK 2×10^-8 M, atropine 1 μM present
T2 construct: This tissue contains predominantly BK2 receptors; from tissue; host or cells: guinea-pig ileum, longitudinal muscle layer with adhering mesenteric plexus
T2 sequence (O70526 1-372): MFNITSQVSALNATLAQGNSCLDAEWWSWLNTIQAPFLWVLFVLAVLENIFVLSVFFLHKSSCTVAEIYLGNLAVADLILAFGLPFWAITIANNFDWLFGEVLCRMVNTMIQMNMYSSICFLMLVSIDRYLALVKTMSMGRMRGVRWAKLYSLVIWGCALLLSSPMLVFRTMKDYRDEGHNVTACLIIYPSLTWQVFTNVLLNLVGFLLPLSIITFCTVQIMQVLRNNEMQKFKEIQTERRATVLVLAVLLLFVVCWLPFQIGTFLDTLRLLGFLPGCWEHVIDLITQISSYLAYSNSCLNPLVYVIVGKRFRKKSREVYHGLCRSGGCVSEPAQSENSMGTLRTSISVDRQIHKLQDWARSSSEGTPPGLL
Method: The ileum of the guinea-pig was selected as the preparation for the bioassay. This tissue contains predominantly BK2 receptors. The preparation consists of the longitudinal muscle layer with the adhering mesenteric plexus. The isolated preparation was kept in Krebs solution and contractions were measured with an isometric force transducer. […] Atropine (1 μM) was always present.

[5] = In vitro biostability in human serum (HPLC determination of peptide degradation); format: in vitro ADME; conditions: 37° C., FIG. 1
Method: FIG. 1 is a graph showing in vitro biostability of somatostatin and three analogs thereof in human serum. The graph depicts the percentage of undegraded molecules for each of the compounds initially and after various periods of time.
Resistance to biodegradation of SST analogs
The in vitro biostability of a SST cyclic peptide analog, PTR 3002, was measured in human serum, and was compared to the same sequence in a non-cyclic peptide analog (PTR 3001), to octreotide (Sandostatin), and to native somatostatin (SRIF). […] The assay was based on HPLC determination of peptide degradation as a function of time at 37° C.

[6] = Lack of toxicity of cyclized peptide analogs in rats; format: in vivo
Text: Lack of toxicity of cyclized peptide analogs
These two doses are several orders of magnitude higher than those needed to elicit the desired endocrine effect. The peptides dissolved in saline produced no untoward side effects on the central nervous system, cardiovascular system, body temperature, nor on the periphery of the animals.

Somatostatin Receptor (SSTR) Subtype SSTR-2B, sequence (P30874 1-356 isoform P30874-2): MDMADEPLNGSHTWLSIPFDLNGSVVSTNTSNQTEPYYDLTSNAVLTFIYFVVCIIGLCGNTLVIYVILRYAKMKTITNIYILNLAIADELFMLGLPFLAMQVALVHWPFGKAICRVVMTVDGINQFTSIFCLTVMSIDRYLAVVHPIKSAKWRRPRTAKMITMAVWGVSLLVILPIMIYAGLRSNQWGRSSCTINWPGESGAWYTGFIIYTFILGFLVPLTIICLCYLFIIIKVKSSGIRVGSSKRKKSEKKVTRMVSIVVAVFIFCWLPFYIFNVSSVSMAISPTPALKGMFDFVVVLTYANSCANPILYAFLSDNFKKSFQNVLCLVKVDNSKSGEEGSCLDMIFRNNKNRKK
Somatostatin Receptor (SSTR) Subtype SSTR-5, sequence (P35346 whole entry): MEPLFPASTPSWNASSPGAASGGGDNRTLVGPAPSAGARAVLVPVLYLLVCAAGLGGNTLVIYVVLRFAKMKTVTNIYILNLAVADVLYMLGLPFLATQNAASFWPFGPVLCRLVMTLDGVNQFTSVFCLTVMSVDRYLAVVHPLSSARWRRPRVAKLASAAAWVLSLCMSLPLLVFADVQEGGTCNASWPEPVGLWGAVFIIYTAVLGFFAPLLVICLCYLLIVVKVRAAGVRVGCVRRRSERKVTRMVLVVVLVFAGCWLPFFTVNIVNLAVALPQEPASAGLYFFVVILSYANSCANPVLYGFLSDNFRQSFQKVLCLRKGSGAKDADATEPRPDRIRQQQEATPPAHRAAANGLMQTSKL

For “Ada-(D)Arg-Arg-cyclo(N^α (1-(6-aminohexylene)Gly-Hyp-Phe-D-Asp)-D-Phe-Phe-Arg--OH [Example 1]”, the “inhibition of BK activity” value [1] was 30%.
`C[C@@H](O)[C@H](NC(=O)CN(CCCN)C(=O)[C@@H](NC(=O)[C@H](CCCCN)NC(=O)[C@@H](Cc1c[nH]c2ccccc12)NC(=O)[C@H](Cc1ccccc1)NC(=O)CN(CC(=O)O)C(=O)[C@H](N)Cc1ccccc1)[C@@H](C)O)C(N)=O` [PTR 3005] showed an inhibition at 1 µM [2] of 9%, an inhibition at 0.1 µM [2] of 0% and an inhibition at 0.01 µM [2] of 0%. It also gave an inhibition at 1 µM [3] of 0%, an inhibition at 0.1 µM [3] of 0% and an inhibition at 0.01 µM [3] of 0%.
For “Ada-D-Arg-Arg-N^α (6-acetamidohexylene)Gly-Hyp-Phe-D-Asp(NH-Me)-D-Phe-Phe-Arg--OH [Example 2]”, the “inhibition of BK activity” value [1] was 0% and the “inhibition of BK activity” value [4] was 0%.
In the case of `C[C@@H](O)[C@H](NC(=O)CN1CCNC(=O)CCN(C(=O)[C@H](N)Cc2ccccc2)CC(=O)N[C@@H](Cc2ccccc2)C(=O)N[C@H](Cc2c[nH]c3ccccc23)C(=O)N[C@@H](CCCCN)C(=O)N[C@@H]([C@@H](C)O)C1=O)C(N)=O` [PTR 3002] (H-[dF][N(CH2CH2CO)Gly]F[dW]KT[N(2-Aminoethyl)Gly]T-NH2; lactam 2-7), the “in vitro biostability in human serum” value [5] is reported as “as stable as octreotide, is more stable than the corresponding non-cyclic structure, and is much more stable than SRIF”.
With `C[C@@H](O)[C@H](NC(=O)CN(CCCN)C(=O)[C@@H](NC(=O)[C@H](CCCCN)NC(=O)[C@@H](Cc1c[nH]c2ccccc12)NC(=O)[C@H](Cc1ccccc1)NC(=O)CN(CCC(=O)O)C(=O)[C@H](N)Cc1ccccc1)[C@@H](C)O)C(N)=O` [PTR 3008] (H-[dF][N(CH2CH2COOH)Gly]F[dW]KT[Gly(N(CH2)3NH2)]T-NH2) the inhibition at 1 µM [2] was 15%, the inhibition at 0.1 µM [2] was 6% and the inhibition at 0.01 µM [2] was 0%. It also gave an inhibition at 1 µM [3] of 0%, an inhibition at 0.1 µM [3] of 0% and an inhibition at 0.01 µM [3] of 0%.
With “H-D-Arg-Arg-cyclo(N^α (4-propanoyl)Gly-Hyp-Phe-N^α (3-amido-propyl)-S-Phe)-Ser-D-Phe-Phe-Arg--OH [Example 4]” the “inhibition of BK activity” value [1] was 17%.
For `C[C@@H](O)[C@H](NC(=O)CN1CCCNC(=O)CCN(C(=O)[C@H](N)Cc2ccccc2)CC(=O)N[C@@H](Cc2ccccc2)C(=O)N[C@H](Cc2c[nH]c3ccccc23)C(=O)N[C@@H](CCCCN)C(=O)N[C@@H]([C@@H](C)O)C1=O)C(N)=O` [PTR 3007] (H-[dF][N(CH2CH2CO)Gly]F[dW]KT[NGly(3-aminopropyl)]T-NH2; lactam 2-7), the “respiratory disturbances, stereotyped behavior, muscle tone” value ([6]; rats observed for 4 hours post administration) was “no respiratory disturbances” and the “tolerability after single intraperitoneal application” value ([6]; rats, dose of 1.5 mg/kg) was “well tolerated”.

— patent publication US5883293A, “Conformationally constrained backbone cyclized peptide analogs” (Peptor Ltd., priority 1994, dated 1999)
